The subject of the test is IP3R3. The experiment in a line: IP3R3 levels in U87 and A549 cells (immunoblotting). Format: cell-based, human. The settings on record: U87 and A549 cells (no or low PTEN); GGTi-2418 for 16 h.

`Cc1nc[nH]c1CN1CCN(C(=O)N[C@@H](CC(C)C)C(=O)O)[C@@H](Cc2ccccc2)C1=O` [GGTi-2418]: the IP3R3 levels entry is “IP3R3 levels increased”.
